System: Mitochondria-located protein genes
Test: DNA chip mRNA expression in yeast, mitochondria-located protein genes (Table 2)
Assay type: cell-based, Saccharomyces cerevisiae S288C
Details: cells incubated two hours with the chemical substance
Procedure, shortened: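 S. cerevisiae S288C grown at 25° C in YPD were exposed in log phase for two hours to one toxic chemical at a growth-inhibiting, non-lethal concentration; untreated cells served as control. Poly(A) mRNA was reverse-transcribed with Cy3/Cy5-dUTP and hybridized to a whole-genome yeast DNA chip at 65° C for over 12 hours; values are fluorescence ratios versus untreated.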

## N#Cc1c(Cl)c(Cl)c(Cl)c(C#N)c1Cl [(9), 2,4,5,6-tetrachloro-1,3-benzenedicarbonitrile]
Yeast gene YJR121W
  The level of expressed mRNA in the presence of chemical substance/The level of expressed mRNA in the absence of chemical substance: 0.8
Yeast gene YKL003C
  The level of expressed mRNA in the presence of chemical substance/The level of expressed mRNA in the absence of chemical substance: 1.5
Yeast gene YKL016C
  The level of expressed mRNA in the presence of chemical substance/The level of expressed mRNA in the absence of chemical substance: 1.3
Yeast gene YKL141W
  The level of expressed mRNA in the presence of chemical substance/The level of expressed mRNA in the absence of chemical substance: 0.8
Yeast gene YKL142W
  The level of expressed mRNA in the presence of chemical substance/The level of expressed mRNA in the absence of chemical substance: 5.8
Yeast gene YKL148C
  The level of expressed mRNA in the presence of chemical substance/The level of expressed mRNA in the absence of chemical substance: 1.7
Yeast gene YKL170W
  The level of expressed mRNA in the presence of chemical substance/The level of expressed mRNA in the absence of chemical substance: 0.9
Yeast gene YKL194C
  The level of expressed mRNA in the presence of chemical substance/The level of expressed mRNA in the absence of chemical substance: 1.3
Yeast gene YKR066C
  The level of expressed mRNA in the presence of chemical substance/The level of expressed mRNA in the absence of chemical substance: 0.7
Yeast gene YLL041C
  The level of expressed mRNA in the presence of chemical substance/The level of expressed mRNA in the absence of chemical substance: 0.7
Yeast gene YLR038C
  The level of expressed mRNA in the presence of chemical substance/The level of expressed mRNA in the absence of chemical substance: 0.4
Yeast gene YLR259C
  The level of expressed mRNA in the presence of chemical substance/The level of expressed mRNA in the absence of chemical substance: 1.8
Yeast gene YLR295C
  The level of expressed mRNA in the presence of chemical substance/The level of expressed mRNA in the absence of chemical substance: 1.4
Yeast gene YLR304C
  The level of expressed mRNA in the presence of chemical substance/The level of expressed mRNA in the absence of chemical substance: 0.1
Yeast gene YLR348C
  The level of expressed mRNA in the presence of chemical substance/The level of expressed mRNA in the absence of chemical substance: 2.1
Yeast gene YLR395C
  The level of expressed mRNA in the presence of chemical substance/The level of expressed mRNA in the absence of chemical substance: 1.0
Yeast gene YML054C
  The level of expressed mRNA in the presence of chemical substance/The level of expressed mRNA in the absence of chemical substance: 4.1
Yeast gene YML120C
  The level of expressed mRNA in the presence of chemical substance/The level of expressed mRNA in the absence of chemical substance: 1.3
Yeast gene YML129C
  The level of expressed mRNA in the presence of chemical substance/The level of expressed mRNA in the absence of chemical substance: 1.4
Yeast gene YMR023C
  The level of expressed mRNA in the presence of chemical substance/The level of expressed mRNA in the absence of chemical substance: 1.5
Yeast gene YMR035W
  The level of expressed mRNA in the presence of chemical substance/The level of expressed mRNA in the absence of chemical substance: 1.7
Yeast gene YMR083W
  The level of expressed mRNA in the presence of chemical substance/The level of expressed mRNA in the absence of chemical substance: 0.4
Yeast gene YMR089C
  The level of expressed mRNA in the presence of chemical substance/The level of expressed mRNA in the absence of chemical substance: 5.6
Yeast gene YMR152W
  The level of expressed mRNA in the presence of chemical substance/The level of expressed mRNA in the absence of chemical substance: 2.7
Yeast gene YMR203W
  The level of expressed mRNA in the presence of chemical substance/The level of expressed mRNA in the absence of chemical substance: 0.7
Yeast gene YMR267W
  The level of expressed mRNA in the presence of chemical substance/The level of expressed mRNA in the absence of chemical substance: 0.4
Yeast gene YNL055C
  The level of expressed mRNA in the presence of chemical substance/The level of expressed mRNA in the absence of chemical substance: 1.1
Yeast gene YNL071W
  The level of expressed mRNA in the presence of chemical substance/The level of expressed mRNA in the absence of chemical substance: 1.1
Yeast gene YNL073W
  The level of expressed mRNA in the presence of chemical substance/The level of expressed mRNA in the absence of chemical substance: 0.9
Yeast gene YNL104C
  The level of expressed mRNA in the presence of chemical substance/The level of expressed mRNA in the absence of chemical substance: 1.1
Yeast gene YNL256W
  The level of expressed mRNA in the presence of chemical substance/The level of expressed mRNA in the absence of chemical substance: 0.8
Yeast gene YOL096C
  The level of expressed mRNA in the presence of chemical substance/The level of expressed mRNA in the absence of chemical substance: 1.3
Yeast gene YOR020C
  The level of expressed mRNA in the presence of chemical substance/The level of expressed mRNA in the absence of chemical substance: 5.8
Yeast gene YOR037W
  The level of expressed mRNA in the presence of chemical substance/The level of expressed mRNA in the absence of chemical substance: 1.3
Yeast gene YOR100C
  The level of expressed mRNA in the presence of chemical substance/The level of expressed mRNA in the absence of chemical substance: 2.0
Yeast gene YOR130C
  The level of expressed mRNA in the presence of chemical substance/The level of expressed mRNA in the absence of chemical substance: 2.0
Yeast gene YOR142W
  The level of expressed mRNA in the presence of chemical substance/The level of expressed mRNA in the absence of chemical substance: 1.1
Yeast gene YOR150W
  The level of expressed mRNA in the presence of chemical substance/The level of expressed mRNA in the absence of chemical substance: 0.8
Yeast gene YOR176W
  The level of expressed mRNA in the presence of chemical substance/The level of expressed mRNA in the absence of chemical substance: 1.0
Yeast gene YOR187W
  The level of expressed mRNA in the presence of chemical substance/The level of expressed mRNA in the absence of chemical substance: 0.6
Yeast gene YOR316C
  The level of expressed mRNA in the presence of chemical substance/The level of expressed mRNA in the absence of chemical substance: 1.6
Yeast gene YPL040C
  The level of expressed mRNA in the presence of chemical substance/The level of expressed mRNA in the absence of chemical substance: 0.2
Yeast gene YPL134C
  The level of expressed mRNA in the presence of chemical substance/The level of expressed mRNA in the absence of chemical substance: 0.6
Yeast gene YPL135W
  The level of expressed mRNA in the presence of chemical substance/The level of expressed mRNA in the absence of chemical substance: 0.5
Yeast gene YPL215W
  The level of expressed mRNA in the presence of chemical substance/The level of expressed mRNA in the absence of chemical substance: 1.7
Yeast gene YPL262W
  The level of expressed mRNA in the presence of chemical substance/The level of expressed mRNA in the absence of chemical substance: 1.4
Yeast gene YPR024W
  The level of expressed mRNA in the presence of chemical substance/The level of expressed mRNA in the absence of chemical substance: 3.0
Yeast gene YPR037C
  The level of expressed mRNA in the presence of chemical substance/The level of expressed mRNA in the absence of chemical substance: 1.5
Yeast gene YPR047W
  The level of expressed mRNA in the presence of chemical substance/The level of expressed mRNA in the absence of chemical substance: 2.1
Yeast gene YPR134W
  The level of expressed mRNA in the presence of chemical substance/The level of expressed mRNA in the absence of chemical substance: 1.8

— patent US8192962B2, “Processes for detecting toxic substances” (Daikin Industries, Ltd., priority 2001, dated 2012)
